Target: T1, SIRT1 (Homo sapiens, UniProt Q96EB6)
T1 sequence (Q96EB6 1-747): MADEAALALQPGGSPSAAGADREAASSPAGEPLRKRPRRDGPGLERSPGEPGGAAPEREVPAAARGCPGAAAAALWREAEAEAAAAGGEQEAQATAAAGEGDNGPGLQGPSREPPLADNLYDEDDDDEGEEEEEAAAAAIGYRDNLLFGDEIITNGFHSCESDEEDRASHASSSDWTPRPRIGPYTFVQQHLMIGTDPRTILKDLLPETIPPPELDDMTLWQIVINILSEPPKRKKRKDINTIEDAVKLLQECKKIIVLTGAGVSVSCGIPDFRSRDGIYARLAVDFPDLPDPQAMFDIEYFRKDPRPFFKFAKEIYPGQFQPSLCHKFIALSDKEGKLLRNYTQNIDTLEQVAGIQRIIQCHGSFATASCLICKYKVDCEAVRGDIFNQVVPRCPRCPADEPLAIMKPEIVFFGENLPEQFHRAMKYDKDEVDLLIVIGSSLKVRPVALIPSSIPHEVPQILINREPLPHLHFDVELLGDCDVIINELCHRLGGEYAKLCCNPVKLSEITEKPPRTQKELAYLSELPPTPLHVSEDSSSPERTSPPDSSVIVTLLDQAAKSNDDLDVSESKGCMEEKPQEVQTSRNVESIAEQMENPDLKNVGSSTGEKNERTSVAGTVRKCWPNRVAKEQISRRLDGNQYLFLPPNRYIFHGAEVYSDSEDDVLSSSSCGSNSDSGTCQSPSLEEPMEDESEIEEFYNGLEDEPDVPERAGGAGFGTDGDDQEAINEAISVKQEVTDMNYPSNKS
Experiment: Trp mass spectrometry assay of SIRT1 activation (Ac-R-H-K-K(Ac)-W-NH2 peptide)
Format: biochemical
Conditions: Trp peptide 0.5 μM, 120 μM βNAD+, 10 nM SIRT1, 25 min at 25° C.; for Emax: 25 min, read-out: TRP MAX RESP (percent maximum fold activation); for Emax / TRP MAX RESP (percent maximum fold activation): relative to control (100%)
Summary of the method: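 N-terminal His-tagged human SIRT1, expressed in BL21(DE3) and purified, was incubated 25 min with an acetylated Trp peptide and NAD plus test compound at varying concentrations, then quenched with formic acid. OAADPR or deacetylated peptide was quantified by mass spectrometry versus compound-free control; EC1.5 is the concentration giving 50% activity increase, with percent maximum activation.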

Compound | Emax [%] | TRP Activity (EC1.5, concentration of test compound that results in 150% activation of SIRT1) | TRP MAX RESP (percent maximum fold activation)
CC(C)(C)NC(=O)c1ccc2c(n1)N(C(=O)Nc1ccccn1)[C@H]1CCN2C1 [Example 48, (4S)—N7-(tert-butyl)-N5-(pyridin-2-yl)-3,4-dihydro-1,4-methanopyrido[2,3-b][1,4]diazepine-5,7(2H)-dicarboxamide] | > 150 | B (EC1.5 1-25 μM) | –
Cc1cc(C(=O)NCC(F)(F)F)nc2c1N1CC[C@@H](C1)N2C(=O)Nc1ccccn1 [Example 287, (4S)-9-methyl-N5-(pyridin-2-yl)-N7-(2,2,2-trifluoroethyl)-3,4-dihydro-1,4-methanopyrido[2,3-b][1,4]diazepine-5,7(2H)-dicarboxamide] | > 150 | A (EC1.5<1 μM) | –
C[C@@H](NC(=O)c1ccc2c(n1)N(C(=O)Nc1cc(NS(C)(=O)=O)ccn1)[C@H]1CCN2C1)C(F)(F)F [Example 324, (4S)—N5-(4-(methylsulfonamido)pyridin-2-yl)-N7-((R)-1,1,1-trifluoropropan-2-yl)-3,4-dihydro-1,4-methanopyrido[2,3-b][1,4]diazepine-5,7(2H)-dicarboxamide] | < 150 | A (EC1.5<1 μM) | –
C[C@@H](NC(=O)c1ccc2c(n1)N(C(=O)Nc1cc(-n3ccnn3)ccn1)[C@H]1CCN2C1)C(F)(F)F [Example 182, (4S)—N5-(4-(1H-1,2,3-triazol-1-yl)pyridin-2-yl)-N7-((R)-1,1,1-trifluoropropan-2-yl)-3,4-dihydro-1,4-methanopyrido[2,3-b][1,4]diazepine-5,7(2H)-dicarboxamide] | > 150 | A (EC1.5<1 μM) | –
NC(CNC(=O)c1ccc2c(n1)N(C(=O)Nc1cc(OC[C@H](O)CO)ccn1)[C@H]1CCN2C1)C(F)(F)F (single isomer, unassigned) [Example 317] | – | B (EC1.5 1-25 μM) | B (Fold Activation<150%)
N[C@H](CNC(=O)c1ccc2c(n1)N(C(=O)Nc1ncccn1)[C@H]1CCN2C1)C(F)(F)F (single isomer, unassigned) [Example 235] | > 150 | A (EC1.5<1 μM) | –
CC(C)[C@@H](C)NC(=O)c1ccc2c(n1)N(C(=O)Nc1ccccn1)[C@H]1CCN2C1 [Example 45, (4S)—N7-((R)-3-methylbutan-2-yl)-N5-(pyridin-2-yl)-3,4-dihydro-1,4-methanopyrido[2,3-b][1,4]diazepine-5,7(2H)-dicarboxamide] | > 150 | A (EC1.5<1 μM) | –
COc1cc2c(nc1C(=O)NCC(F)(F)F)N(C(=O)Nc1ccccn1)[C@H]1CCN2C1 [Example 284, (4S)-8-methoxy-N5-(pyridin-2-yl)-N7-(2,2,2-trifluoroethyl)-3,4-dihydro-1,4-methanopyrido[2,3-b][1,4]diazepine-5,7(2H)-dicarboxamide] | > 150 | A (EC1.5<1 μM) | –
C[C@@H](NC(=O)c1ccc2c(n1)N(C(=O)Nc1ncc3[nH]ccc3n1)[C@H]1CCN2C1)C(F)(F)F [Example 147, (4S)—N5-(5H-pyrrolo[3,2-d]pyrimidin-2-yl)-N7-((R)-1,1,1-trifluoropropan-2-yl)-3,4-dihydro-1,4-methanopyrido[2,3-b][1,4]diazepine-5,7(2H)-dicarboxamide] | > 150 | A (EC1.5<1 μM) | –
C[C@@H](NC(=O)c1ccc2c(n1)N(C(=O)Nc1ccccn1)[C@H]1CCN2C1)C(F)(F)F [Example 19, (4S)—N5-(pyridin-2-yl)-N7-((R)-1,1,1-trifluoropropan-2-yl)-3,4-dihydro-1,4-methanopyrido[2,3-b][1,4]diazepine-5,7(2H)-dicarboxamide] | > 150 | A (EC1.5<1 μM) | –
O=C(NCCO)c1ccc2c(n1)N(C(=O)Nc1ccccn1)[C@H]1CCN2C1 [Example 13, (4S)—N-7-(2-hydroxyethyl)-N-5-(pyridin-2-yl)-3,4-dihydro-1,4-methanopyrido [2,3-b] [1, 4] diazepine-5, 7(2H)-dicarboxamide] | > 150 | – | –
C[C@@H](NC(=O)c1ccc2c(n1)N(C(=O)Nc1cn(C)ccc1=O)[C@H]1CCN2C1)C(F)(F)F [Example 188, (4S)—N5-(1-methyl-4-oxo-1,4-dihydropyridin-3-yl)-N7-((R)-1,1,1-trifluoropropan-2-yl)-3,4-dihydro-1,4-methanopyrido[2,3-b][1,4]diazepine-5,7(2H)-dicarboxamide] | > 150 | B (EC1.5 1-25 μM) | –

Results, then the molecule that gave them:

Emax [%] | TRP Activity (EC1.5, concentration of test compound that results in 150% activation of SIRT1) | TRP MAX RESP (percent maximum fold activation) | Compound
> 150 | A (EC1.5<1 μM) | – | O=C(NCC1CC1)c1ccc2c(n1)N(C(=O)Nc1ncccn1)[C@H]1CCN2C1 [Example 97, (4S)—N7-(cyclopropylmethyl)-N5-(pyrimidin-2-yl)-3,4-dihydro-1,4-methanopyrido[2,3-b][1,4]diazepine-5,7(2H)-dicarboxamide]
> 150 | B (EC1.5 1-25 μM) | – | COc1cc(NC(=O)N2c3nc(C(=O)NCC4CC4)ccc3N3CC[C@H]2C3)ncn1 [Example 113, (4S)—N7-(cyclopropylmethyl)-N5-(6-methoxypyrimidin-4-yl)-3,4-dihydro-1,4-methanopyrido[2,3-b][1,4]diazepine-5,7(2H)-dicarboxamide]
> 150 | B (EC1.5 1-25 μM) | – | O=C(NC[C@@H]1CCCO1)c1ccc2c(n1)N(C(=O)Nc1ccccn1)[C@H]1CCN2C1 [Example 208, (4S)—N5-(pyridin-2-yl)-N7-(((S)-tetrahydrofuran-2-yl)methyl)-3,4-dihydro-1,4-methanopyrido[2,3-b][1,4]diazepine-5,7(2H)-dicarboxamide]
> 150 | B (EC1.5 1-25 μM) | – | Cc1ncc(-c2ccnc(NC(=O)N3c4nc(C(=O)N[C@@H](C)C(F)(F)F)ccc4N4CC[C@H]3C4)c2)o1 [Example 126, (4S)—N5-(4-(2-methyloxazol-5-yl)pyridin-2-yl)-N7-((S)-1,1,1-trifluoropropan-2-yl)-3,4-dihydro-1,4-methanopyrido[2,3-b][1,4]diazepine-5,7(2H)-dicarboxamide]
– | B (EC1.5 1-25 μM) | B (Fold Activation<150%) | O=C(NC1CC1(F)F)c1ccc2c(n1)N(C(=O)Nc1cc(OC[C@H](O)CO)ccn1)[C@H]1CCN2C1 (single isomer, unassigned) [Example 306]
> 150 | A (EC1.5<1 μM) | – | O=C(NC1CC1(F)F)c1ccc2c(n1)N(C(=O)Nc1ccccn1)[C@H]1CCN2C1 (stereo partly drawn) [Example 20, (4S)—N7-(2,2-difluorocyclopropyl)-N5-(pyridin-2-yl)-3,4-dihydro-1,4-methanopyrido[2,3-b][1,4]diazepine-5,7(2H)-dicarboxamide]
> 150 | B (EC1.5 1-25 μM) | – | Cc1ncc(-c2ccnc(NC(=O)N3c4nc(C(=O)NC5CC5)ccc4N4CC[C@H]3C4)c2)o1 [Example 123, (4S)—N7-cyclopropyl-N5-(4-(2-methyloxazol-5-yl)pyridin-2-yl)-3,4-dihydro-1,4-methanopyrido[2,3-b][1,4]diazepine-5,7(2H)-dicarboxamide]
> 150 | B (EC1.5 1-25 μM) | – | CNC(=O)c1ccc2c(n1)N(C(=O)Nc1ccccn1)[C@H]1CCN2C1 [Example 212, (4S)—N7-methyl-N5-(pyridin-2-yl)-3,4-dihydro-1,4-methanopyrido[2,3-b][1,4]diazepine-5,7(2H)-dicarboxamide]
> 150 | B (EC1.5 1-25 μM) | – | O=C(NC1CC1)c1ccc2c(n1)N(C(=O)Nc1cccnn1)[C@H]1CCN2C1 [Example 229, (4S)—N7-cyclopropyl-N5-(pyridazin-3-yl)-3,4-dihydro-1,4-methanopyrido[2,3-b][1,4]diazepine-5,7(2H)-dicarboxamide]
